Assay [1] has as its system Staphylococcus aureus, USA 300 wherein ClpP is inactivated. Kind of assay: Minimal inhibitory concentration assay. In kind it is cell-based. In outline:
(§1)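 CLSI broth microdilution; 2-fold series from 200 μM final; inoculum ~10^5 cfu/mL; 37 °C, aerobic, overnight; visual MIC = lowest conc. without growth. The ClpP-inactivated USA 300 strain is the comparator for ClpP-dependent killing.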

For assay [2], the system named is Staphylococcus aureus, USA 300. Kind of assay: Minimal inhibitory concentration assay. Conditions: USA300, read-out: Minimal Inhibitory Concentrations S. aureus USA 300. In kind it is cell-based. A digest of the protocol: as §1

In brackets after ≈: the same amount, converted by molar mass. *1 amine or outer side, *2 acyl side, *3 side chain or, on linkers, in order; H or OH if unused. Where a SMILES comes first, the peptide text is derived from it. Bridges are numbered along the chain shown (N, C = ends). [ ]: non-standard residue; d: D form. The star is where a group is joined. ξ: configuration not given here. Phe(3,5-F2) = N[C@@H](Cc1cc(F)cc(F)c1)C(=O)O; NH(1-Me-indolin-5-yl) = CN1CCc2cc(N*)ccc21; Morpholine(3S-CO) = O=C(O)[C@@H]1COCCN1; NH(4-Cl-2-F-phenyl) = Fc1cc(Cl)ccc1N*; Pro(4R-Me) = C[C@H]1CN[C@H](C(=O)O)C1; Hyp = O=C(O)[C@@H]1C[C@@H](O)CN1; ξNMeThr = CNC(C(=O)O)[C@@H](C)O; aThr = C[C@H](O)[C@H](N)C(=O)O; CO = O=C([*:1])[*:2]

With `C[C@@H]1C[C@H]2C(=O)O[C@@H](C)[C@H](NC(=O)[C@H](Cc3cc(F)cc(F)c3)NC(=O)Nc3ccc4c(c3)CCN4C)C(=O)N3CCC[C@H]3C(=O)N3CCOC[C@H]3C(=O)N[C@@H](C)C(=O)N2C1` [Compound 312, (S)-3-(3,5-difluorophenyl)-2-(3-(1-methylindolin-5-yl)ureido)-N-((6aS,12S,13S,15aS,17R,21S,23aS)-13,17,21-trimethyl-6,11,15,20,23-pentaoxooctadecahydro-6H,11H,15H-[1,4]oxazino[3,4-i]dipyrrolo[2,1-c:2′,1′-l][1]oxa[4,7,10,13]tetraazacyclo-hexadecin-12-yl)propanamide] ({NH(1-Me-indolin-5-yl)-CO}-[Phe(3,5-F2)][aThr]P[Morpholine(3S-CO)]A[Pro(4R-Me)]; ester 2-C), the “Minimal Inhibitory Concentrations S. aureus USA 300 ΔClpP” value in assay [1] was above 20 µM. Moreover, the MIC in assay [2] was determined as 0.156 µM (≈ 0.133 µg/mL).
The like results for `C[C@@H]1C[C@H]2C(=O)O[C@@H](C)[C@H](NC(=O)[C@H](Cc3cc(F)cc(F)c3)NC(=O)Nc3ccc(Cl)cc3F)C(=O)N3CCC[C@H]3C(=O)N(C)C([C@@H](C)O)C(=O)N[C@@H](C)C(=O)N2C1` (stereo partly drawn) [Compound 313, (S)-2-(3-(4-chloro-2-fluorophenyl)ureido)-3-(3,5-difluorophenyl)-N-((2R,6S,9R,11aS,17S,18S,20aS)-9-((R)-1-hydroxyethyl)-2,6,10,18-tetramethyl-5,8,11,16,20-pentaoxohexadecahydro-1H,5H,16H-dipyrrolo[2,1-c:2′,1′-l][1]oxa[4,7,10,13]tetraazacyclohexadecin-17-yl)propanamide] ({NH(4-Cl-2-F-phenyl)-CO}-[Phe(3,5-F2)][aThr]P[ξNMeThr]A[Pro(4R-Me)]; ester 2-C) were, in that order, above 20 µM and below 0.02 µM.
On to `C[C@@H]1C[C@H]2C(=O)O[C@@H](C)[C@H](NC(=O)[C@H](Cc3cc(F)cc(F)c3)NC(=O)Nc3ccc(Cl)cc3F)C(=O)N3CCC[C@H]3C(=O)N3CCOC[C@H]3C(=O)N[C@@H](C)C(=O)N2C1` [Compound 314, (S)-2-(3-(4-chloro-2-fluorophenyl)ureido)-3-(3,5-difluorophenyl)-N-((6aS,12S,13S,15aS,17R,21S,23aS)-13,17,21-trimethyl-6,11,15,20,23-pentaoxooctadecahydro-6H,11H,15H-[1,4]oxazino[3,4-i]dipyrrolo[2,1-c:2′,1′-l][1]oxa[4,7,10,13]tetraazacyclo-hexadecin-12-yl)propanamide] ({NH(4-Cl-2-F-phenyl)-CO}-[Phe(3,5-F2)][aThr]P[Morpholine(3S-CO)]A[Pro(4R-Me)]; ester 2-C), for which the “Minimal Inhibitory Concentrations S. aureus USA 300 ΔClpP” value in assay [1] was above 20 µM. Moreover, in assay [2], the MIC is below 0.02 µM.
On to `C[C@@H]1C[C@H]2C(=O)O[C@@H](C)[C@H](NC(=O)[C@H](Cc3cc(F)cc(F)c3)NC(=O)Nc3ccc4c(c3)CCN4C)C(=O)N3C[C@H](O)C[C@H]3C(=O)N3CCOC[C@H]3C(=O)N[C@@H](C)C(=O)N2C1` [Compound 315, (S)-3-(3,5-difluorophenyl)-N-((6aS,8R,12S,13S,15aS,17R,21S,23aS)-8-hydroxy-13,17,21-trimethyl-6,11,15,20,23-pentaoxooctadecahydro-6H,11H,15H-[1,4]oxazino[3,4-i]dipyrrolo[2,1-c:2′,1′-l][1]oxa[4,7,10,13]tetraazacyclohexadecin-12-yl)-2-(3-(1-methylindolin-5-yl)ureido)propanamide] ({NH(1-Me-indolin-5-yl)-CO}-[Phe(3,5-F2)][aThr][Hyp][Morpholine(3S-CO)]A[Pro(4R-Me)]; ester 2-C), for which the “Minimal Inhibitory Concentrations S. aureus USA 300 ΔClpP” value in assay [1] is above 20 µM. In addition, the MIC in assay [2] stood at 10 µM (≈ 8.67 µg/mL).

The record behind these values is patent publication US10457707B2, “Substituted urea depsipeptide analogs as activators of the CLPP endopeptidase” (priority 2015, dated 2019).
